# Experimental data: patent publication US20240277583A1, “Micellar Mouthwash Composition” (Colgate-Palmolive Company, priority 2022, published 2024)
# What was measured:
# [1] = Colloid particle (micelle) size by dynamic light scattering; assay type: physicochemical; conditions: colloid particle diameter
# From the text: Next, the colloid particle (micelle) size in Formulations A and B as well as Elmex mouthwash is examined.
# In contrast, the micelle size of Formulation B is around 14.1 nm, close to that of PEG-40 hydrogenated castor oil (16.0 nm). Although the inflection point of the surface tension curve is not obvious in the Elmex mouthwash, dynamic light scattering detects colloid particles with 12.2 nm diameter, which are likely solubilized oil droplets in the mouthwash product. With the smallest particle size (amine fluoride/coco glucoside<amine fluoride<amine fluoride/PEG-40 hydrogenated castor oil), amine fluoride/cocoyl glucoside complex is most mobile and can likely reach smaller spaces that others cannot reach. This feature would likely enhance the delivery of active encapsulated in the micelle core, and also enhance availability of amine fluoride, therefore improving its antibacterial efficacy.
# [2] = Diffusion rate D determined by NMR; assay type: physicochemical
smiles,measurement,setting,value
"CCCCCCCCCCCCCCCCCCN(CCO)CCCN(CCO)CCO.F.F [Olaflur, N′-octadecyltrimethylenediamine-N,N,N′-tris(2-ethanol)-dihydrofluoride]",Micelle size (nm) mean,[1],6.6 nm
same,D in individual solution,[2]; ingredient alone in solution,4.84 × 10^−6 cm^2/s
same,D in Formulation A,[2]; ingredient within Formulation A (Olaflur + coco glucoside),2.27 × 10^−6 cm^2/s
same,D in Formulation B,[2]; ingredient within Formulation B (Olaflur + PEG-40 hydrogenated castor oil),4.33 × 10^−6 cm^2/s
